Source: US12364696B2, “Treatment of autoimmune disease” (priority 2019, dated 2025)
“And” between values parts separate entries of the source, which are not always exact repeats. Identical values can stand only once. “Also recorded” adds a separate entry of the source. Like-named read-outs stand apart in the source and are kept apart here.

Columns and labels:
[1] = test system: patients with chronic, refractory, moderate to severe alopecia areata; assay: Retrospective clinical study of orally administered and sublingual tofacitinib, 7-point assessment scale of hair regrowth; type: in vivo, human; conditions: for Increase in hair growth of >+1, % of patients / Increase in hair growth of >+1, number of patients / Mean score on 7-point assessment scale / Patients who achieved +3 (complete response, CR) / Median score on 7-point assessment scale: all patients
[2] = test system: patients with moderate to severe, treatment-resistant alopecia areata; conditions: for Mean change from baseline in Assessment of Quality of Life-8D (AQoL-8D) score at Week 28: n = 13; for Mean change from baseline in Alopecia Areata Symptom Impact Scale (AASIS) score at Week 28 - Global Symptom Impact Score / Mean change from baseline in Alopecia Areata Symptom Impact Scale (AASIS) score at Week 28 - Scalp Hair Loss Score: n = 14
[3] = dose range 1-20 mg, oral or sublingual
[4] = of 71 patients on immunosuppressive co-therapy at start
[5] = oral or sublingual, n = 127, listed as Tofacitinib
[6] = orally administered, 3 months, n = 39, mean dose 4.19 mg
[7] = orally administered, 6 months, n = 36, mean dose 4.96 mg
[8] = orally administered, 9 months, n = 25, mean dose 5.58 mg
[9] = orally administered, 12 months, n = 21, mean dose 5.63 mg
[10] = orally administered, 15 months, n = 16, mean dose 6.90 mg
[11] = orally administered, 18 months, n = 7, mean dose 6.07 mg
[12] = prolonged disease duration >10 years, n = 38
[13] = sublingual, 3 months, n = 88, mean dose 3.73 mg
[14] = sublingual, 6 months, n = 74, mean dose 4.48 mg
[15] = sublingual, 9 months, n = 53, mean dose 4.71 mg
[16] = sublingual, 12 months, n = 34, mean dose 6.25 mg
[17] = sublingual, 15 months, n = 15, mean dose 6.81 mg
[18] = sublingual, 18 months, n = 3, mean dose 5.00 mg
[19] = tofacitinib monotherapy, n = 56
[20] = sublingual, 5 mg tablets, 3 months
[21] = sublingual, 5 mg tablets, 3 months, n = 16
[22] = sublingual, listed as sublingual tofacitinib

## C[C@@H]1CCN(C(=O)CC#N)C[C@@H]1N(C)c1ncnc2[nH]ccc12 [tofacitinib]
[1]; 31 late responders, 6 months
  Late responders with CR: 2
  Late responders with a score of 0: 8
  Late responders with a score of >+1: 17
[1]; 31 late responders, 9 months
  Late responders in CR: 4
  Late responders with a score of >+1: 20
[1]; 31 late responders, by 15 months
  Late responders who had achieved CR: 10
[1]; [3]
  Overall effect on hair loss and regrowth: arrested hair loss and stimulated regrowth in the overwhelming majority of patients; also recorded: highly effective
  Tolerability: well tolerated
[1]; later diagnosed with nonalcoholic steatohepatitis
  Patients who developed asymptomatic hepatic transaminitis leading to treatment discontinuation: One
[1]; [4]
  Patients who discontinued all other immunosuppressive treatment after starting tofacitinib, %: 46%
  Patients who discontinued all other immunosuppressive treatment after starting tofacitinib, number: Thirty-three
[1]; of the 67 early responders
  Early responders who achieved a +2: 40%
  Early responders who achieved a +3: 22%
[1]; oral or sublingual
  Patients who have remained in CR for >12 months: nine
  Patients who remain in CR after six months of continued treatment: Twenty-four
  Side effects: infrequent and mild
[1]; oral or sublingual, 3 months
  Increase in hair growth of >+1, % of patients: 56%
  Increase in hair growth of >+1, number of patients: 71
  Mean score on 7-point assessment scale: 0.84 and 0.8
  Patients who achieved +3 (complete response, CR): 12%
[1]; oral or sublingual, 3 months (IQR 0 to +2)
  Median score on 7-point assessment scale: +1 (25-49% hair loss)
[1]; oral or sublingual, 6 months
  Mean score on 7-point assessment scale: 1.1
[1]; oral or sublingual, 9 months
  Mean score on 7-point assessment scale: 1.1
[1]; oral or sublingual, 12 months
  Increase in hair growth of >+1, % of patients: 78%
  Increase in hair growth of >+1, number of patients: 43
  Mean score on 7-point assessment scale: 1.66 and 1.6
  Patients who achieved +3 (complete response, CR): 40%
[1]; oral or sublingual, 12 months (IQR +1 to +3)
  Median score on 7-point assessment scale: +2 (1-24% hair loss)
[1]; oral or sublingual, 15 months
  Mean score on 7-point assessment scale: 1.9
[1]; oral or sublingual, 18 months
  Increase in hair growth of >+1, % of patients: 90%
  Increase in hair growth of >+1, number of patients: 9
  Mean score on 7-point assessment scale: 2.33 and 2.4
  Patients who achieved +3 (complete response, CR): 80%
[1]; oral or sublingual, 18 months (IQR +3 to +3)
  Median score on 7-point assessment scale: +3 (No hair loss (SALT 0))
[1]; oral or sublingual, n = 127
  Early responders (>+1 score by 3 months of treatment), % of patients: 53%
  Early responders (>+1 score by 3 months of treatment), number of patients: Sixty-seven
  Late responders (>+1 score after 6 months of treatment), % of patients: 24%
  Late responders (>+1 score after 6 months of treatment), number of patients: Thirty-one
  Primary treatment failure (failed to respond), number of patients: Twenty-four
  Primary treatment failure, % of patients: 19%
  Relapse (at least one grade deterioration in score), number of patients: Twenty-eight
  Relapse, % of patients: 22%
[1]; [5]
  Primary treatment failure (failed to respond), number of patients: 24
  Relapse (at least one grade deterioration in score), number of patients: 28
[1]; [6]
  Score +1, number of patients: 7
  Score +2, number of patients: 8
  Score +3, % of patients: 18%
  Score +3, number of patients: 7
  Total non-responders, % of patients: 44%
  Total non-responders, number of patients: 17
  Total responders, % of patients: 56%
  Total responders, number of patients: 22
[1]; [7]
  Score +1, number of patients: 4
  Score +2, number of patients: 7
  Score +3, % of patients: 27%
  Score +3, number of patients: 10
  Total non-responders, % of patients: 42%
  Total non-responders, number of patients: 15
  Total responders, % of patients: 58%
  Total responders, number of patients: 21
[1]; [8]
  Score +1, number of patients: 3
  Score +2, number of patients: 4
  Score +3, % of patients: 48%
  Score +3, number of patients: 12
  Total non-responders, % of patients: 24%
  Total non-responders, number of patients: 6
  Total responders, % of patients: 76%
  Total responders, number of patients: 19
[1]; [9]
  Score +1, number of patients: 1
  Score +2, number of patients: 5
  Score +3, % of patients: 52%
  Score +3, number of patients: 11
  Total non-responders, % of patients: 19%
  Total non-responders, number of patients: 4
  Total responders, % of patients: 81%
  Total responders, number of patients: 17
[1]; [10]
  Score +1, number of patients: 1
  Score +2, number of patients: 2
  Score +3, % of patients: 56%
  Score +3, number of patients: 9
  Total non-responders, % of patients: 25%
  Total non-responders, number of patients: 4
  Total responders, % of patients: 75%
  Total responders, number of patients: 12
[1]; [11]
  Score +1, number of patients: 0
  Score +2, number of patients: 1
  Score +3, % of patients: 71%
  Score +3, number of patients: 5
  Total non-responders, % of patients: 14%
  Total non-responders, number of patients: 1
  Total responders, % of patients: 86%
  Total responders, number of patients: 6
[1]; out of 28 who experienced a relapse while on treatment
  Secondary treatment failure, number of patients: Five
[1]; patients with AT/AU
  Patients who achieved a CR, %: 37%
  Patients who achieved a CR, number: 13
  Patients who achieved a response, %: 71%
  Patients who achieved a response, number: 25
[1]; [12]
  Early responders, number of patients: 21
  Late responders, number of patients: 10
  Never responded, number of patients: 6
  Patients who had regrowth: 81.6%
  Relapsed, number of patients: 2
[1]; [13]
  Score +1, number of patients: 21
  Score +2, number of patients: 20
  Score +3, % of patients: 9%
  Score +3, number of patients: 8
  Total non-responders, % of patients: 46.5%
  Total non-responders, number of patients: 41
  Total responders, % of patients: 53%
  Total responders, number of patients: 49
[1]; [14]
  Score +1, number of patients: 18
  Score +2, number of patients: 17
  Score +3, % of patients: 20%
  Score +3, number of patients: 15
  Total non-responders, % of patients: 32%
  Total non-responders, number of patients: 24
  Total responders, % of patients: 68%
  Total responders, number of patients: 50
[1]; [15]
  Score +1, number of patients: 13
  Score +2, number of patients: 12
  Score +3, % of patients: 26%
  Score +3, number of patients: 14
  Total non-responders, % of patients: 26%
  Total non-responders, number of patients: 14
  Total responders, % of patients: 74%
  Total responders, number of patients: 39
[1]; [16]
  Score +1, number of patients: 8
  Score +2, number of patients: 11
  Score +3, % of patients: 32%
  Score +3, number of patients: 11
  Total non-responders, % of patients: 15%
  Total non-responders, number of patients: 5
  Total responders, % of patients: 85%
  Total responders, number of patients: 29
[1]; [17]
  Score +1, number of patients: 3
  Score +2, number of patients: 5
  Score +3, % of patients: 40%
  Score +3, number of patients: 6
  Total non-responders, % of patients: 7%
  Total non-responders, number of patients: 1
  Total responders, % of patients: 93%
  Total responders, number of patients: 14
[1]; [18]
  Score +1, number of patients: 0
  Score +2, number of patients: 0
  Score +3, % of patients: 100%
  Score +3, number of patients: 3
  Total non-responders, number of patients: 0
  Total responders, % of patients: 100%
  Total responders, number of patients: 3
[1]; [19]
  Early responders, % of patients: 51.7%
  Early responders, number of patients: Twenty-nine
  Late responders, % of patients: 19.6%
  Late responders, number of patients: 11
  Patients who achieved a CR: Eighteen
  Primary failures, % of patients: 26.7%
  Primary failures, number of patients: 15
  Secondary failure, number of patients: 1
[2]; human, in vivo
  Changes in blood biochemistry: no clinically significant changes
  Serious adverse events: no serious adverse events
  Withdrawals secondary to adverse events: no withdrawals secondary to adverse events
[2]; [20]
  Good grade respondents (50-75%), proportion: 1/16
  High grade respondents (75-100%), proportion: 1/16
  Low grade respondents (15-29% reduction in SALT score at Week 28), proportion: 3/16
  Mean reduction in SALT score of the two patients who achieved >50% reduction: 60.3%
  Medium grade respondents (30-49%), proportion: 1/16
  Participants achieving at least 1 grade improvement in eyebrow assessment scale at Week 28, proportion: 8/16
  Participants achieving at least 1 grade improvement in eyelash assessment scale at Week 28, proportion: 6/16
  Participants who achieved a 100% reduction in SALT score at Week 28: No participants
  Patients who achieved a >50% reduction in SALT score: 12.5%
[2]; [21]
  Mean reduction from baseline (Week 16) of SALT score at Week 28: 15.57%
  Participants achieving at least 1 grade improvement in eyebrow assessment scale at Week 28, percentage: 50%
  Participants achieving at least 1 grade improvement in eyelash assessment scale at Week 28, percentage: 37.5%
[2]; sublingual, 5 mg tablets, 3 months, n = 16, listed as sublingual tofacitinib
  Participants achieving at least 1 grade improvement in eyebrow assessment scale at Week 28, percentage: (50%)
[2]; sublingual, 5 mg tablets, Week 28 vs Week 16
  Total Treatment Response, proportion: 6/16
[2]; sublingual, 5 mg tablets, Week 28 vs Week 16, n = 16, listed as Sublingual tofacitinib
  Total Treatment Response, percentage: 37.5%
[2]; sublingual
  Mean change from baseline in Assessment of Quality of Life-8D (AQoL-8D) score at Week 28: 0.0148
  Mean change from baseline in Alopecia Areata Symptom Impact Scale (AASIS) score at Week 28 - Global Symptom Impact Score: 0.1306
  Mean change from baseline in Alopecia Areata Symptom Impact Scale (AASIS) score at Week 28 - Scalp Hair Loss Score: 2.2142
[2]; [22]
  Mean change from baseline in Assessment of Quality of Life-8D (AQoL-8D) score at Week 28: −0.0148
  Mean change from baseline in Alopecia Areata Symptom Impact Scale (AASIS) score at Week 28 - Global Symptom Impact Score: −0.1306
  Mean change from baseline in Alopecia Areata Symptom Impact Scale (AASIS) score at Week 28 - Scalp Hair Loss Score: −2.2142
